Experimental data from publication PMC5428013, “Peptide-Au Clusters Induced Tumor Cells Apoptosis via Targeting Glutathione Peroxidase-1: The Molecular Dynamics Assisted Experimental Studies” (Scientific Reports, 2017).
Entries after “also recorded” stand apart in the source; their conditions may differ.

Tests used:
[1] = tested on: HCT-8 cells; assay: Cell viability assay (CCK-8), HCT-8; type: cell-based, human; details: HCT-8, same condition as A549
Method: Briefly, cells were prior cultured on 96-well plates (at the density of 5 × 10^3 cells/well) for 24 h to allow cells attachment. The cells were treated with different doses of these free peptides (0, 1, 4, 16, 64, 256, 1024 µM) and peptide-Au clusters (0, 50, 100, 200, 400, 800 µM in Au dose) for 48 h, respectively. The cells were washed three times with PBS and then incubated with fresh growth medium containing 10% (v/v) CCK-8 reagent for 1 h at 37 °C for cell viability assay. The absorbance was measured at 450 nm by using a microplate reader (SpectraMAX M2, Sunnyvale, California). Cell viability of untreated cells was set as 100%, and that of treated cells were expressed as a relative percentage of untreated cells. All data were shown as mean percentages ± standard deviation from three independent experiments.

[2] = tested on: PARP; assay: Cleaved PARP level, western blotting; type: cell-based, human; details: serial Au doses (0, 100, 200, 400, 800 μM), 48 h
Method: The expression of GPx-1, caspase-3 and PARP from Au25P1_9 treated A549 cells were analyzed by western blotting. A549 cells were prior seeded on 6-well plate (at the density of 1 × 10^5 cells/well) for 24 h. Then the medium was discarded and fresh culture medium with Au25P1_9 at different doses was added to make cells exposed to final Au doses at 0, 100, 200, 400 and 800 μM, respectively. After another 48 h incubation, the cells were harvested and lysed by cell lysis buffer for Western and IP (containing 20 mM Tris-HCl, pH7.5, 150 mM NaCl, 1% Triton X-100, sodium pyrophosphate, β-glycerophosphate, EDTA, Na3VO4 and leupeptin), protease inhibitor cocktail tablet and 1 mM PMSF for 15 min on a shaker at 4 °C. The lysed cells were collected and centrifuged for 15 min at 12,000 g to get total protein of cells. The protein dose of each sample was prior quantified, and then loading buffer was added. After boiling for 5 min, the protein samples with equal amount were separated on 12% SDS polyacrylamide gel electrophoresis and then transferred onto the polyvinylidene difluoride (PVDF) membrane. Membrane was blocked by 5% nonfat dried milk prepared in tris(hydroxymethyl)amin omethane-NaCl-Tween 20 (TBST) at room temperature for 1 h, and then incubated with primary antibodies specific to β-actin, Caspase-3, PARP and GPx-1 at 4 °C overnight, respectively. […]

[3] = tested on: GPx-1; assay: Cellular GPx-1 activity in treated A549 cells; type: cell-based, human; details: 48 h
Method: (§1) A549 cells were prior seeded on 6-well plate (at the density of 1 × 10^5 cells/well) for 24 h. Then the medium was discarded and fresh culture medium with Au25P1_9 at different doses was added to make cells exposed to final Au doses at 0, 100, 200, 400 and 800 μM, respectively. After another 48 h incubation, the cells were washed thrice with PBS and lysed by cell lysis buffer containing 1 mM PMSF for 15 min on a shaker at 4 °C. The lysed cells were collected and centrifuged for 20 min at 12,000 g to get total protein of cells. The protein dose of each sample was quantified by BCA Protein Assay Kit and the GPx-1 activity of peptide-Au clusters treated A549 cells was measured by GPx Activity Colorimetric Assay Kit, respectively. For the control experiments, a series of Au doses of Au25P1_9 at 0, 5, 25, 100, 400 μM were incubated with the GPx-1 containing cell lysate of A549 cells for 10 min and the GPx-1 activity of theses samples was also measured. The GPx-1 activity of untreated samples was set as 100%, and that of peptide-Au clusters treated samples were expressed as a relative percentage of untreated ones.

[4] = tested on: A549 cells; assay: Apoptosis evaluation, Annexin V-FITC/PI dual staining; type: cell-based, human; details: 48 h
Method: Apoptosis detection with Annexin V-FITC/PI fluorescence dual staining was carried out by flow cytometry. Briefly, about 2 mL of 1 × 10^5 cells/mL of A549 cells were seeded in 6-well plate for 24 h before treatment with Au25P1_9 at different Au doses. The cells were treated with Au25P1_9 (Au dose at 0, 100, 200, 400 and 800 μM) for 48 h, respectively. Then culture medium and cells in each well were collected and centrifuged at 1200 rpm for 3 min. The supernatant was discarded and the cells were washed twice with PBS. 195 μL Annexin V-FITC binding buffer was added to re-suspend the cells at a dose of ~5 × 10^5 cells/mL in 1.5 mL Eppendorf tube. 5 μL Annexin V-FITC and 10 μL PI stains were added into each cell suspension, respectively. The tubes were incubated at room temperature under darkness for exactly 15 min. The fluorescence of the cells was determined immediately with flow cytometer. Cells at the early stage of apoptotic process were stained with the Annexin V-FITC alone. Necrotic cells were stained by both the Annexin V-FITC and PI. […] So, the percentage of apoptotic and necrosis cells can be analyzed by Cflow software.

[5] = tested on: GPx-1; assay: GPx-1 activity in A549 cell lysate; type: biochemical, human; details: Au dose 0, 5, 25, 100, 400 μM, 10 min
Method: as §1

[6] = tested on: A549 cells; assay: Mitochondrial membrane potential assay (JC-1); type: cell-based, human; details: 800 µM Au, 48 h, JC-1, CLSM
Method: Disruption of ΔΨm is an important step in the induction of cellular apoptosis. JC-1, a sensitive mitochondrial dye, was used to evaluate the ΔΨm. JC-1 can aggregates in the mitochondrial matrix to yield red fluorescence (λem = 590 nm) at high mitochondrial membrane potential, while JC-1 monomer has green fluorescence at low mitochondrial membrane potential (λem = 527 nm). Therefore, using JC-1 easily signals the loss of ΔΨm, an event of early cell apoptosis. After treated with 800 µM of Au25P1_9 for 48 h on glass-bottom dish, cells were stained with JC-1 at 37 °C for 20 min under darkness. Then, cells were washed twice with cold buffer solution and JC-1 fluorescence inside cells was immediately observed by CLSM.

In the case of “CCYGGPEEEEEVG [Au25P1_9, Au25 cluster coated by nine P1 peptides (…)]”, the “change of cell viability” value [1] was “almost negligible”, the “cleaved PARP level” value [2] was “Au dose-dependent increase of cleaved caspases-3 and cleaved PARP levels” and the “cellular GPx-1 activity (relative to untreated = 100%)” value ([3]; 800 μM of Au) was 27%. For the same sequence, the “cellular GPx-1 activity” value ([3]; Au dose 0, 100, 200, 400, 800 μM) was “significantly decreases as Au25P1_9 dose increase; also recorded: the most effective candidate for suppression of GPx-1 activity in buffer and cells”, the cell apoptosis ratio ([4]; A549, Au25P1_9 dose 100 μM (Au)) was 5.8% and the cell apoptosis ratio ([4]; A549, Au25P1_9 dose 800 μM (Au)) was 15.2%. For the same sequence, the “cell apoptosis dose dependence” value ([4]; A549, Au dose 0, 100, 200, 400, 800 μM) was “dose-dependent manner”, the “GPx-1 activity in cell lysate” value [5] was “suppressed via an Au dose dependent manner” and the “mitochondrial membrane potential change” value [6] was “a red to green emission shift can be observed in most cells after treated with Au25P1_9, indicating mitochondria depolarization”.
